*1 amine or outer side, *2 acyl side, *3 side chain or, on linkers, in order; H or OH if unused. Where a SMILES comes first, the peptide text is derived from it. Bridges are numbered along the chain shown (N, C = ends). [ ]: non-standard residue; d: D form. Pro(3R,4S-CMe2) = CC1(C)[C@@H]2[C@@H](C(=O)O)NC[C@@H]21; Phe(4-guanidino) = N=C(N)Nc1ccc(C[C@H](N)C(=O)O)cc1; Pro(trans-4-Ph) = O=C(O)[C@@H]1C[C@@H](c2ccccc2)CN1; X4 = O=C([C@H](Cc1cc2cc(F)ccc2[nH]1)N[*:1])[*:2]; Trp(7-aza) = N[C@@H](Cc1c[nH]c2ncccc12)C(=O)O; hAad = O=C([C@H](CCCCC(=O)[*:3])N[*:1])[*:2]; Phe(4-CH2NH2) = NCc1ccc(C[C@H](N)C(=O)O)cc1; Pro(4S-NH2) = N[C@@H]1CN[C@H](C(=O)O)C1; mXylylene = c1cc(C[*:1])cc(C[*:2])c1; d(aThr) = C[C@@H](O)[C@@H](N)C(=O)O; Aad = N[C@@H](CCCC(=O)O)C(=O)O; Cha = N[C@@H](CC1CCCCC1)C(=O)O; Agp = N=C(N)NC[C@H](N)C(=O)O; Chg = N[C@H](C(=O)O)C1CCCCC1; Tle = CC(C)(C)[C@H](N)C(=O)O; αMeV = CC(C)[C@](C)(N)C(=O)O; hSer = N[C@@H](CCO)C(=O)O; Dab = NCC[C@H](N)C(=O)O; Nva = CCC[C@H](N)C(=O)O; Aib = CC(C)(N)C(=O)O; Mpa = O=C(O)CCS; Sar = CNCC(=O)O
Biological target: human PCSK9 / human LDLR EGFa domain interaction (Homo sapiens, UniProt Q8NBP7)
Assay: TR-FRET assay of inhibition of the PCSK9-LDLR protein-protein interaction
Assay type: binding
Conditions: 20 nM biotinylated human PCSK9 + 20 nM his-tagged human LDLR EGFa domain, 2 hours room temperature
Description: A time-resolved fluorescence resonance energy (TR-FRET) assay was used to measure inhibition of the PCSK9-LDLR protein-protein interaction. Briefly, 20 nM avitag-biotinylated human PCSK9 was incubated with 20 nM his-tagged human LDLR EGFa domain in the presence of 5 nM LANCE Ulight Streptavidin (Perkin Elmer) and 5 nM europium-Anti-6×His (Perkin Elmer) for 2 hours covered at room temperature in buffer containing 50 mM HEPES, 150 mM NaCl, 5 mM CaCl2, 0.01% BSA and 0.01% Surfactant P20. Compounds were tested in dose-response and concentrations giving half-maximal inhibition calculated using a 4-parameter fit equation.

Sequence of human PCSK9 / human LDLR EGFa domain interaction (Q8NBP7 153-692): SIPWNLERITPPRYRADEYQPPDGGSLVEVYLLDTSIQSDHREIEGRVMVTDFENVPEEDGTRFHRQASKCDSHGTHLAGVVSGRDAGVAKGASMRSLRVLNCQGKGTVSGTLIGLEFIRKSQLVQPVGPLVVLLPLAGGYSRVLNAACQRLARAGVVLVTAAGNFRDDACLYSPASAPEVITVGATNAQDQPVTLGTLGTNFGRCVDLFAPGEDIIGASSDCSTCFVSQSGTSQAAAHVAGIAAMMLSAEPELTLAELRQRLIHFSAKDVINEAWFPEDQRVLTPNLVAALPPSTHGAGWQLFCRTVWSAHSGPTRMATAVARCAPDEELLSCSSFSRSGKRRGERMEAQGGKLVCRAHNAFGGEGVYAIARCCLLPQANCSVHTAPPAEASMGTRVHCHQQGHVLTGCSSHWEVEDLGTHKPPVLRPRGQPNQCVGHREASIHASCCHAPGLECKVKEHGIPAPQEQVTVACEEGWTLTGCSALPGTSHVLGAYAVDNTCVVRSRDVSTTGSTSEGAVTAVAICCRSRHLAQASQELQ
Sequence of human PCSK9 / human LDLR EGFa domain interaction (Q8NBP7 31-152 partner limits assumed): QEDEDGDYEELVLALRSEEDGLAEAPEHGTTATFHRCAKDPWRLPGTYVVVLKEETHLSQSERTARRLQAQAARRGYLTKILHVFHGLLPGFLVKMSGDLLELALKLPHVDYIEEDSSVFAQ

SMILES	IC50
CCC[C@@H]1NC(=O)[C@H](Cc2c[nH]c3ncccc23)NC(=O)[C@H]([C@@H](C)O)NC(=O)[C@@H]2C[C@@H](c3ccccc3)CN2C(=O)[C@H](Cc2ccc(O)cc2)NC(=O)[C@H](C(C)(C)C)NC(=O)CCSCc2cccc(c2)CSC[C@@H](C(N)=O)NC(=O)[C@H]([C@@H](C)O)NC(=O)[C@H](CCC)NC(=O)[C@H](Cc2ccc(O)cc2)NC(=O)[C@H](CCC(=O)O)NC1=O [Compound 005] ([Mpa][Tle]Y[Pro(trans-4-Ph)]T[Trp(7-aza)][Nva]EY[Nva]TC-NH2; linker 1-12 via mXylylene)	1000 to 12100 nM
CCC[C@@H]1NC(=O)[C@H](Cc2ccc(NC(=N)N)cc2)NC(=O)[C@H]([C@@H](C)O)NC(=O)[C@H](Cc2cnc[nH]2)NC(=O)[C@H](Cc2ccc(O)cc2)NC(=O)[C@H](C(C)(C)C)NC(=O)CCSCc2cccc(c2)CSC[C@@H](C(N)=O)NC(=O)[C@H]([C@@H](C)O)NC(=O)[C@H](CCC)NC(=O)[C@H](Cc2ccc(O)cc2)NC(=O)[C@H](CCC(=O)O)NC1=O [Compound 055] ([Mpa][Tle]YHT[Phe(4-guanidino)][Nva]EY[Nva]TC-NH2; linker 1-12 via mXylylene)	1000 to 12100 nM
CCC[C@@H]1NC(=O)[C@H](Cc2ccc(O)cc2)NC(=O)[C@H](CCC(=O)O)NC(=O)[C@H](CC(C)C)NC(=O)[C@H](Cc2c[nH]c3ncccc23)NC(=O)[C@H]([C@@H](C)O)NC(=O)[C@H](Cc2cnc[nH]2)NC(=O)[C@H](Cc2ccc(O)cc2)NC(=O)[C@H](C(C)(C)C)NC(=O)CCSCc2cccc(c2)CSC[C@@H](C(N)=O)NC(=O)[C@H]([C@@H](C)O)NC1=O [Compound 078] ([Mpa][Tle]YHT[Trp(7-aza)]LEY[Nva]TC-NH2; linker 1-12 via mXylylene)	100 to 1000 nM
CCC[C@@H]1NC(=O)[C@H](Cc2ccc(O)cc2)NC(=O)[C@H](CCC(=O)O)NC(=O)[C@H](CC2CCCCC2)NC(=O)[C@H](Cc2c[nH]c3ncccc23)NC(=O)[C@H]([C@@H](C)O)NC(=O)[C@H](Cc2cnc[nH]2)NC(=O)[C@H](Cc2ccc(O)cc2)NC(=O)[C@H](C(C)(C)C)NC(=O)CCSCc2cccc(c2)CSC[C@@H](C(N)=O)NC(=O)[C@H]([C@@H](C)O)NC1=O [Compound 079] ([Mpa][Tle]YHT[Trp(7-aza)][Cha]EY[Nva]TC-NH2; linker 1-12 via mXylylene)	1000 to 12100 nM
CCC[C@H](NC(C)=O)C(=O)N[C@H]1CSCc2cccc(c2)CSC[C@@H](C(N)=O)NC(=O)[C@H]([C@@H](C)O)NC(=O)[C@H](C2CCCCC2)NC(=O)[C@H](Cc2c[nH]c3ncccc23)NC(=O)[C@H](Cc2cnc[nH]2)NC(=O)[C@H](CCC(=O)O)NC(=O)[C@H](Cc2c[nH]c3ncccc23)NC(=O)[C@H]([C@@H](C)O)NC(=O)[C@H]2CCCN2C(=O)[C@H](Cc2ccc(O)cc2)NC(=O)[C@H](C(C)(C)C)NC1=O [Compound 001] (Ac-[Nva]C[Tle]Y[dP]T[Trp(7-aza)]EH[Trp(7-aza)][Chg]TC-NH2; linker 2-13 via mXylylene)	1000 to 12100 nM
CCC[C@H](NC(C)=O)C(=O)N[C@H]1CSCc2cccc(c2)CSC[C@@H](C(N)=O)NC(=O)[C@H]([C@@H](C)O)NC(=O)[C@H](C2CCCCC2)NC(=O)[C@H](Cc2c[nH]c3ncccc23)NC(=O)[C@H](Cc2c[nH]cn2)NC(=O)[C@H](CCC(=O)O)NC(=O)[C@H](Cc2c[nH]c3ncccc23)NC(=O)[C@H]([C@@H](C)O)NC(=O)CN(C)C(=O)[C@H](Cc2ccc(O)cc2)NC(=O)[C@H](C(C)(C)C)NC1=O [Compound 007] (Ac-[Nva]C[Tle]Y[Sar]T[Trp(7-aza)]EH[Trp(7-aza)][Chg]TC-NH2; linker 2-13 via mXylylene)	1000 to 12100 nM
CCC[C@@H]1NC(=O)[C@H](Cc2ccc(O)cc2)NC(=O)[C@H](CCC(=O)O)NC(=O)[C@H](CCC)NC(=O)[C@H](Cc2c[nH]c3ncccc23)NC(=O)[C@H]([C@@H](C)O)NC(=O)[C@H](Cc2cnc[nH]2)NC(=O)[C@H](Cc2ccc(O)cc2)NC(=O)[C@H](C(C)(C)C)NC(=O)CCSCc2cccc(c2)CSC[C@@H](C(N)=O)NC(=O)[C@H](CCO)NC1=O [Compound 074] ([Mpa][Tle]YHT[Trp(7-aza)][Nva]EY[Nva][hSer]C-NH2; linker 1-12 via mXylylene)	100 to 1000 nM
CCC[C@@H]1NC(=O)[C@H](Cc2c[nH]c3ncccc23)NC(=O)[C@H]([C@@H](C)O)NC(=O)[C@@H]2CCCCNC(=O)CC[C@H](NC1=O)C(=O)N[C@@H](Cc1ccc(O)cc1)C(=O)NC(C)(C)C(=O)N[C@@H]([C@@H](C)O)C(=O)N[C@H](C(N)=O)CSCc1cccc(c1)CSCCC(=O)N[C@@H](C(C)(C)C)C(=O)N[C@@H](Cc1ccc(O)cc1)C(=O)N2 [Compound 114] ([Mpa][Tle]YKT[Trp(7-aza)][Nva]EY[Aib]TC-NH2; linker 1-12 via mXylylene; lactam 4-8)	100 to 1000 nM
CCC[C@@H]1NC(=O)[C@H](Cc2c[nH]c3ncccc23)NC(=O)[C@H]([C@@H](C)O)NC(=O)[C@@H]2[C@@H]3[C@H](CN2C(=O)[C@H](Cc2ccc(O)cc2)NC(=O)[C@H](C(C)(C)C)NC(=O)CCSCc2cccc(c2)CSC[C@@H](C(N)=O)NC(=O)[C@H]([C@@H](C)O)NC(=O)[C@H](CCC)NC(=O)[C@H](Cc2ccc(O)cc2)NC(=O)[C@H](CCC(=O)O)NC1=O)C3(C)C [Compound 008] ([Mpa][Tle]Y[Pro(3R,4S-CMe2)]T[Trp(7-aza)][Nva]EY[Nva]TC-NH2; linker 1-12 via mXylylene)	100 to 1000 nM

Next, values leading:

IC50	SMILES
100 to 1000 nM	CCC[C@@H]1NC(=O)[C@H](Cc2c[nH]c3ncccc23)NC(=O)[C@H]([C@@H](C)O)NC(=O)[C@@H]2C[C@H](N)CN2C(=O)[C@H](Cc2ccc(O)cc2)NC(=O)[C@H](C(C)(C)C)NC(=O)CCSCc2cccc(c2)CSC[C@@H](C(N)=O)NC(=O)[C@H]([C@@H](C)O)NC(=O)[C@H](C2CCCCC2)NC(=O)[C@H](Cc2ccc(O)cc2)NC(=O)[C@H](CCCC(=O)O)NC1=O [Compound 010] ([Mpa][Tle]Y[Pro(4S-NH2)]T[Trp(7-aza)][Nva][Aad]Y[Chg]TC-NH2; linker 1-12 via mXylylene)
100 to 1000 nM	CCC[C@@H]1NC(=O)[C@H](Cc2c[nH]c3ncccc23)NC(=O)[C@H]([C@@H](C)O)NC(=O)[C@H](CCC(=O)O)NC(=O)[C@H](Cc2ccc(O)cc2)NC(=O)[C@H](C(C)(C)C)NC(=O)CCSCc2cccc(c2)CSC[C@@H](C(N)=O)NC(=O)[C@H]([C@@H](C)O)NC(=O)[C@H](C2CCCCC2)NC(=O)[C@H](Cc2ccc(O)cc2)NC(=O)[C@H](CCCCN)NC1=O [Compound 047] ([Mpa][Tle]YET[Trp(7-aza)][Nva]KY[Chg]TC-NH2; linker 1-12 via mXylylene)
100 to 1000 nM	CCC[C@@H]1NC(=O)[C@H](Cc2c[nH]c3ncccc23)NC(=O)[C@@H]([C@@H](C)O)NC(=O)[C@@H]2CCCCC(=O)NCC[C@H](NC1=O)C(=O)N[C@@H](Cc1ccc(O)cc1)C(=O)N[C@@H](C1CCCCC1)C(=O)N[C@@H]([C@@H](C)O)C(=O)N[C@H](C(N)=O)CSCc1cccc(c1)CSCCC(=O)N[C@@H](C(C)(C)C)C(=O)N[C@@H](Cc1ccc(O)cc1)C(=O)N2 [Compound 108] ([Mpa][Tle]Y[hAad][d(aThr)][Trp(7-aza)][Nva][Dab]Y[Chg]TC-NH2; linker 1-12 via mXylylene; lactam 4-8)
100 to 1000 nM	CCC[C@@H]1NC(=O)[C@H](Cc2c[nH]c3ncccc23)NC(=O)[C@H]([C@@H](C)O)NC(=O)[C@H](Cc2cnc[nH]2)NC(=O)[C@H](Cc2ccc(O)cc2)NC(=O)[C@H](C(C)(C)C)NC(=O)[C@@H](NC(C)=O)CCC(=O)NCc2ccc(cc2)C[C@@H](C(N)=O)NC(=O)[C@H]([C@@H](C)O)NC(=O)[C@H](CCC)NC(=O)[C@H](Cc2ccc(O)cc2)NC(=O)[C@H](CCC(=O)O)NC1=O [Compound 013] (Ac-E[Tle]YHT[Trp(7-aza)][Nva]EY[Nva]T[Phe(4-CH2NH2)]-NH2; lactam 1-12)
100 to 1000 nM	CC(C)[C@]1(C)NC(=O)[C@H](Cc2ccc(O)cc2)NC(=O)[C@H](CCC(=O)O)NC(=O)C(C)(C)NC(=O)[C@H](Cc2c[nH]c3ncccc23)NC(=O)[C@H]([C@@H](C)O)NC(=O)[C@H](CCCCN)NC(=O)[C@H](Cc2ccc(O)cc2)NC(=O)[C@H](C(C)(C)C)NC(=O)CCSCc2cccc(c2)CSC[C@@H](C(N)=O)NC(=O)[C@H]([C@@H](C)O)NC1=O [Compound 063] ([Mpa][Tle]YKT[Trp(7-aza)][Aib]EY[αMeV]TC-NH2; linker 1-12 via mXylylene)
100 to 1000 nM	CCC[C@@H]1NC(=O)[C@H](Cc2c[nH]c3ncccc23)NC(=O)[C@H]([C@@H](C)O)NC(=O)[C@H](CNC(=N)N)NC(=O)[C@H](Cc2cc3cc(F)ccc3[nH]2)NC(=O)[C@H](Cc2cc3cc(F)ccc3[nH]2)NC(=O)[C@@H](NC(=O)[C@H](Cc2ccc(NC(=N)N)cc2)NC(C)=O)CSCc2cccc(c2)CSC[C@@H](C(N)=O)NC(=O)[C@H]([C@@H](C)O)NC(=O)[C@H](CCC)NC(=O)[C@H](Cc2ccc(O)cc2)NC(=O)[C@H](CCC(=O)O)NC1=O [Compound 092] (Ac-[Phe(4-guanidino)]C[X4][X4][Agp]T[Trp(7-aza)][Nva]EY[Nva]TC-NH2; linker 2-13 via mXylylene)
100 to 1000 nM	CCC[C@@H]1NC(=O)[C@H](Cc2c[nH]c3ncccc23)NC(=O)[C@H]([C@@H](C)O)NC(=O)[C@H](Cc2cnc[nH]2)NC(=O)[C@H](Cc2ccc(O)cc2)NC(=O)[C@H](C(C)(C)C)NC(=O)[C@@H](NC(=O)[C@H](CCCNC(=N)N)NC(C)=O)CSCc2cccc(c2)CSC[C@@H](C(N)=O)NC(=O)[C@H]([C@@H](C)O)NC(=O)[C@H](CCC)NC(=O)[C@H](Cc2ccc(O)cc2)NC(=O)[C@H](CCC(=O)O)NC1=O [Compound 050] (Ac-RC[Tle]YHT[Trp(7-aza)][Nva]EY[Nva]TC-NH2; linker 2-13 via mXylylene)

Source: patent US11505575B2, “Cyclic polypeptides for PCSK9 inhibition” (Merck Sharp & Dohme LLC, priority 2018, dated 2022)
